Reference: patent US8569267B2, “Tetracyclic tetrahydrofuran derivatives containing cyclic amine side chain” (Janssen Pharmaceutica, NV, priority 2005, dated 2013)

What was measured:
[1] = target: T1, human Dopamine D2L receptor (Homo sapiens, UniProt P14416); experiment: In vitro binding affinity for human D2L receptor ([3H]Spiperone binding); details: human D2L receptor-transfected CHO cell membranes; for IC50: read-out: D2L pIC50 (converted)
T1 construct: expressed in transfected cells; host or cells: CHO cells
Method in brief: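 Membranes from CHO cells transfected with the receptor were incubated with [3H]Spiperone (diluted to 2 nmol/L before addition) and compound for 30 min at 37° C. Buffer was Tris-HCl, pH 7.7, with NaCl, CaCl2, MgCl2 and KCl, and non-specific binding was defined with 10^−6 mol/l Butaclamol. Bound radioactivity was collected by filtration, counted by scintillation, and competition curves calculated as percent specific binding.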

[2] = target: T2, NET (norepinephrine transporter) (Rattus norvegicus, UniProt Q63380); experiment: In vitro determination of NET reuptake inhibition ([3H]Nixosetine binding, rat brain cortex); details: rat brain cortex; for IC50: read-out: NET pIC50 (converted)
T2 construct: Cortex from rat brain was collected and homogenised; from tissue; host or cells: rat brain cortex
Method in brief: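 Rat cortex homogenised in Tris 50 mM, NaCl 120 mM, KCl 5 mM, pH 7.4 was used for competition binding against [3H]nisoxetine. Bound radioligand was collected by filtration on GF/B filters and counted by scintillation. Percentage specific binding and competition curves were derived.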

[3] = target: T3, human cloned 5-HT2C receptor, expressed in CHO cells (Homo sapiens, UniProt P28335); experiment: In vitro binding affinity for 5-HT2C receptor ([3H]mesulergine radioligand binding); details: human cloned 5-HT2C receptor; for IC50: read-out: 5-HT2C pIC50 (converted)
T3 construct: expressed in transfected cells; host or cells: CHO cells
T3 sequence (P28335 33-458): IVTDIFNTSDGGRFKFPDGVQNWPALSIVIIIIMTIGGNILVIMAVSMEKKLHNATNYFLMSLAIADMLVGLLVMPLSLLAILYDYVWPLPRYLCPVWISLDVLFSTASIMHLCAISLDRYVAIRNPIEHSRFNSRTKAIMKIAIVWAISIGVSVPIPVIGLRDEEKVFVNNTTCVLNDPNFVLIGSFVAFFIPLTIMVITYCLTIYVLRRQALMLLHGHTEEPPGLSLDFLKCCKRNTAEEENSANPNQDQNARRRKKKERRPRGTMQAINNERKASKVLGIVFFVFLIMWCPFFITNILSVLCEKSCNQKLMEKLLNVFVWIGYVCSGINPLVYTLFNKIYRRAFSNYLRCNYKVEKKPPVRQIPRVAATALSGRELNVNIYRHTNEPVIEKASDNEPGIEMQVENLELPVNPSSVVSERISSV
Method in brief: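 Competition radioligand binding: varying test-compound concentrations incubated with receptor preparation and radioligand to binding equilibrium. Bound radioactivity separated from free and counted; affinity inferred from concentration-dependent inhibition of radioligand binding.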

[4] = target: T4, human cloned 5-HT2A receptor, expressed in L929 cells (Homo sapiens, UniProt P28223); experiment: In vitro binding affinity for 5-HT2A receptor ([125I]R91150 radioligand binding); details: human cloned 5-HT2A receptor in L929 cells, [125I]R91150; for IC50: read-out: 5-HT2A pIC50 (converted)
T4 construct: expressed in transfected cells; host or cells: L929 cells
Method in brief: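 Competition radioligand binding to human cloned 5-HT2A receptor expressed in L929 cells, using [125I]R91150 with test compound at various concentrations. At equilibrium, receptor-bound radioactivity was separated from free and counted. Affinity reflects inhibition of radioligand binding.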

T2 sequence (Q63380 1-617): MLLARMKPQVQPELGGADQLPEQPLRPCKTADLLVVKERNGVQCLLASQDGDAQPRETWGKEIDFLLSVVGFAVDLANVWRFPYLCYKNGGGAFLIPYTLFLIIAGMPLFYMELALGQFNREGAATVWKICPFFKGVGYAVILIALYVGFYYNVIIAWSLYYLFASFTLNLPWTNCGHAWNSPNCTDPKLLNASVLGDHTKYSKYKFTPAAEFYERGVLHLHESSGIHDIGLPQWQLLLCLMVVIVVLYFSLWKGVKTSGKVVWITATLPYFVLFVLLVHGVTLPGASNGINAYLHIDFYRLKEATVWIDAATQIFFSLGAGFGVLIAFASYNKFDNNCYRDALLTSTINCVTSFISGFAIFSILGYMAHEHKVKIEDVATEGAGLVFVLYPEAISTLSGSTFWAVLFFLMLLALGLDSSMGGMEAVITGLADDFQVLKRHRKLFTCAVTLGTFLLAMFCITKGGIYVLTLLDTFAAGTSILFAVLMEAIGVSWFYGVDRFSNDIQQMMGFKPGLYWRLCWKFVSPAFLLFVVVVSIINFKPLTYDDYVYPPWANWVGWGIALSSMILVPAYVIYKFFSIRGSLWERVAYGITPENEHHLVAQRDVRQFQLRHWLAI
T4 sequence (P28223 whole entry): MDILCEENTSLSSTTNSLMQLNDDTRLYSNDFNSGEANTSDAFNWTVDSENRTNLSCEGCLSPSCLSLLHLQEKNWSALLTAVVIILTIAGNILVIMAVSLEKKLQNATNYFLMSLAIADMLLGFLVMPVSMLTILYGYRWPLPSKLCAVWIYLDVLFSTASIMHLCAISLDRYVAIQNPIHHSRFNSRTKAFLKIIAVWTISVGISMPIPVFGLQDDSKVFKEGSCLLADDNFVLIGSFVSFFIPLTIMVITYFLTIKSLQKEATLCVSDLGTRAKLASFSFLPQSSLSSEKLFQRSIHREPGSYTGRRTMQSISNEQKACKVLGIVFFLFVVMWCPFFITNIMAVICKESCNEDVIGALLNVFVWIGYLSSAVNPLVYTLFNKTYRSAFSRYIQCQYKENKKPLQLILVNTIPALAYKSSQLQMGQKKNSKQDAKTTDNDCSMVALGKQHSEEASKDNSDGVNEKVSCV
T1 sequence (P14416 whole entry): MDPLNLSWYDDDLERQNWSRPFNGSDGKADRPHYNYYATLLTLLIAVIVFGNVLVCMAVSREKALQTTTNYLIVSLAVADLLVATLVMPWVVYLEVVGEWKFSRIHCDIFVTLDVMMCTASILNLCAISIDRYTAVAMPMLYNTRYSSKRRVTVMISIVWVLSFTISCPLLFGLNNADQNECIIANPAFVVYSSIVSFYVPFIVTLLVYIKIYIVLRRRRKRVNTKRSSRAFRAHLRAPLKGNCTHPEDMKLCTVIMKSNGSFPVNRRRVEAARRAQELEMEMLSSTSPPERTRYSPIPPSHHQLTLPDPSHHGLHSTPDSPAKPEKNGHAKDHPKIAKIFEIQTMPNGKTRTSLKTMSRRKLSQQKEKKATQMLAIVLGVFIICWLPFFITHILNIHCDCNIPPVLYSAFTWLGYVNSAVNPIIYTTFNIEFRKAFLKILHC

Structure (SMILES)	IC50 [1]	IC50 [2]	IC50 [3]	IC50 [4]	D2L pIC50 [1]	NET pIC50 [2]	5-HT2C pIC50 [3]	5-HT2A pIC50 [4]
Fc1ccc2c(c1)C1OC(CN3CCN(c4nc5ccccc5o4)CC3)CC1c1ccccc1C2 (stereo not shown) [Compound 126]	214 nM	9770 nM	79.4 nM	8.91 nM	–	–	–	–
OC(COc1ccc(Cl)cc1)CN1CCN(C[C@H]2C[C@@H]3c4ccccc4Cc4ccc(F)cc4[C@@H]3O2)CC1 (stereo partly shown) [Compound 56]	26.3 nM	5620 nM	10.2 nM	6.03 nM	–	–	–	–
CC(C)NC(=O)N1CCN(CC2CC3c4ccccc4Cc4ccc(F)cc4C3O2)CC1 (stereo not shown) [Compound 88]	22.9 nM	6460 nM	5.5 nM	0.38 nM	–	–	–	–
CC(=O)OCCN1[C@H](C)CN(C[C@H]2C[C@@H]3c4ccccc4Cc4ccc(F)cc4[C@@H]3O2)C[C@@H]1C.O=C(O)C(=O)O [Compound 281]	–	–	–	–	7.74	<5	7.87	8.39
O=C(Nc1ccccc1)OCC1CCN(CC2CC3c4ccccc4Cc4ccc(F)cc4C3O2)C1 (mixture of isomers) [Compound 22]	5.01 nM	2510 nM	3.72 nM	3.09 nM	–	–	–	–
Fc1ccc2c(c1)C1OC(CN3CCCC(C4=NCCN4)C3)CC1c1ccccc1C2 (stereo not shown) [Compound 171]	282 nM	1410 nM	18.2 nM	28.2 nM	–	–	–	–
CCCCCCCCCCNC(=O)C1CCN(C[C@H]2C[C@@H]3c4ccccc4Cc4ccc(F)cc4[C@@H]3O2)CC1 [Compound 178]	50.1 nM	> 10000 nM	9.33 nM	< 10 nM	–	–	–	–
COc1ccc(CNC(=O)N2CCN(CC3CC4c5ccccc5Cc5ccc(F)cc5C4O3)CC2)c(OC)c1 (stereo not shown) [Compound 96]	8.91 nM	> 10000 nM	6.76 nM	16.2 nM	–	–	–	–
Fc1ccc2c(c1)C1OC(CN3CCN(c4ccccn4)CC3)CC1c1ccccc1C2 (stereo not shown) [Compound 117]	15.5 nM	4570 nM	2.51 nM	1.48 nM	–	–	–	–
COC(=O)C1CCN(C[C@H]2C[C@@H]3c4ccccc4Cc4ccc(F)cc4[C@@H]3O2)C1 (single isomer, unassigned) [Compound 11, [2R-(2α, 3aα, 12bβ)]-(3′RS) 1-(11-fluoro-3,3a,8,12b-tetrahydro-2H-1-oxa-dibenzo[e,h]azulen-2-ylmethyl)-pyrrolidine-3-carboxylic acid methyl ester.oxalate (1:1)]	9.77 nM	8320 nM	0.708 nM	2.04 nM	–	–	–	–
N#Cc1cccc(OC2CCN(CC3CC4c5ccccc5Cc5ccc(F)cc5C4O3)C2)c1 (mixture of isomers) [Compound 29]	14.5 nM	8510 nM	3.39 nM	7.24 nM	–	–	–	–
O=C(NC1CC1)N1CCN(CC2CC3c4ccccc4Cc4ccc(F)cc4C3O2)CC1 (stereo not drawn) [Compound 94, [2R-(2α, 3aα, 12bβ)]4-(11-fluoro-3,3a,8,12b-tetrahydro-2H-1-oxa-dibenzo[e,h]-azulen-2-ylmethyl)-piperazine-1-carboxylic acid cyclopropylamide.oxalate (1:1)]	35.5 nM	10700 nM	2.19 nM	0.389 nM	–	–	–	–
OC1CCN(C[C@H]2C[C@@H]3c4ccccc4Cc4ccc(F)cc4[C@@H]3O2)C1 (stereo partly drawn) [Compound 1, [2R-(2α, 3aα, 12bβ)]-(3′RS) 1-(11-fluoro-3,3a,8,12b-tetrahydro-2H-1-oxa-dibenzo[e,h]azulen-2-ylmethyl)-pyrrolidin-3-ol.oxalate (1:1)]	7.41 nM	479 nM	0.372 nM	0.692 nM	–	–	–	–
Fc1ccc2c(c1)C1OC(CN3CCN(c4nc5ccccc5s4)CC3)CC1c1ccccc1C2 (stereo not shown) [Compound 125]	257 nM	> 10000 nM	77.6 nM	17.4 nM	–	–	–	–
COc1ccc(N2CCN(CC3CC4c5ccccc5Cc5ccc(F)cc5C4O3)CC2)cc1 (stereo not shown) [Compound 116]	37.2 nM	7240 nM	20 nM	9.77 nM	–	–	–	–
COC(=O)C(Cc1ccc(Cl)cc1)NC(=O)C1CCN(CC2CC3c4ccccc4Cc4ccc(F)cc4C3O2)CC1 (mixture of isomers) [Compound 184]	25.1 nM	3890 nM	5.75 nM	1.41 nM	–	–	–	–

Structure (SMILES)	IC50 [1]	IC50 [2]	IC50 [3]	IC50 [4]	D2L pIC50 [1]	NET pIC50 [2]	5-HT2C pIC50 [3]	5-HT2A pIC50 [4]
Fc1ccc(OCCN2CCN(CC3CC4c5ccccc5Cc5ccc(F)cc5C4O3)CC2)cc1 (stereo not shown) [Compound 54]	2.45 nM	2190 nM	8.13 nM	7.59 nM	–	–	–	–
OCCCC1CCN(CC2CC3c4ccccc4Cc4ccc(F)cc4C3O2)CC1 (stereo not drawn) [Compound 155, [2R-(2α, 3aα, 12bβ)]3-[1-(11-fluoro-3,3a,8,12b-tetrahydro-2H-1-oxa-dibenzo[e,h]-azulen-2-ylmethyl)-piperidin-4-yl]-propan-1-ol.oxalate (1:1)]	1.48 nM	1860 nM	2.88 nM	1.51 nM	–	–	–	–
O=C(NC1CCCCC1)C1CCN(CC2CC3c4ccccc4Cc4ccc(F)cc4C3O2)CC1 (stereo not shown) [Compound 188]	9.77 nM	> 10000 nM	2.75 nM	< 10 nM	–	–	–	–
N#CC1CCCN(C[C@H]2C[C@@H]3c4ccccc4Cc4ccc(F)cc4[C@@H]3O2)CC1.O=C(O)C(=O)O.O=C(O)C(=O)O (mixture of isomers) [Compound 268]	–	–	–	–	7.92	<5	8.24	8.52
CC(C)(C)NC(=S)N1CCN(CC2CC3c4ccccc4Cc4ccc(F)cc4C3O2)CC1 (stereo not shown) [Compound 109]	132 nM	263 nM	38.9 nM	14.5 nM	–	–	–	–
COC(CNC(=O)N1CCN(CC2CC3c4ccccc4Cc4ccc(F)cc4C3O2)CC1)OC (stereo not shown) [Compound 91]	37.2 nM	4070 nM	14.8 nM	1.15 nM	–	–	–	–
N#CC1=CCN(C[C@H]2C[C@@H]3c4ccccc4Cc4ccc(F)cc4[C@@H]3O2)CC1.O=C(O)C(F)(F)F [Compound 270]	–	–	–	–	6.67	5.78	7.45	7.18
O=C(NC(=S)N1CCN(CC2CC3c4ccccc4Cc4ccc(F)cc4C3O2)CC1)c1ccccc1 (stereo not shown) [Compound 111]	27.5 nM	3090 nM	9.77 nM	3.89 nM	–	–	–	–
O=C(O)C(=O)O.OCC1CCCN(C[C@H]2C[C@@H]3c4ccccc4Cc4ccc(F)cc4[C@@H]3O2)C1 (single isomer, unassigned) [Compound 149]	–	–	–	–	8.61	<5.52	9.10	9.08
CS(=O)(=O)N1CCN(CC2CC3c4ccccc4Cc4ccc(F)cc4C3O2)CC1 (stereo not shown) [Compound 102]	10.7 nM	> 10000 nM	12.6 nM	4.68 nM	–	–	–	–
CSc1nccc(N2CCN(CC3CC4c5ccccc5Cc5ccc(F)cc5C4O3)CC2)n1 (stereo not shown) [Compound 124]	47.9 nM	2290 nM	30.9 nM	8.91 nM	–	–	–	–
C=CCN(C)C(=O)C1CCN(CC2CC3c4ccccc4Cc4ccc(F)cc4C3O2)CC1 (stereo not shown) [Compound 177]	11.7 nM	9770 nM	4.47 nM	< 10 nM	–	–	–	–
O=C(O)C(=O)O.OC1CCN(CC2CC3c4ccccc4Oc4ccc(F)cc4C3O2)CC1 (racemic) [Compound 282]	–	–	–	–	6.10	<5	6.93	7.00
Cc1ccc(C(=O)OC2CCN(CC3CC4c5ccccc5Cc5ccc(F)cc5C4O3)C2)cc1 (mixture of isomers) [Compound 15]	7.41 nM	2090 nM	6.31 nM	7.94 nM	–	–	–	–
Fc1ccc2c(c1)C1OC(CN3CCN(Cc4ccoc4)CC3)CC1c1ccccc1C2.O=C(O)C(F)(F)F (stereo not drawn) [Compound 61, [2R-(2α, 3aα, 12bβ)]1-(11-fluoro-3,3a,8,12b-tetrahydro-2H-1-oxa-dibenzo[e,h]-azulen-2-ylmethyl)-4-furan-3-ylmethyl-piperazine.trifluoroacetate (1:1)]	–	–	–	–	8.09	5.88	7.66	8.03
